24 molecules from US11524968B2, “Heterocyclic compound as a protein kinase inhibitor” (HK inno.N Corporation, priority 2017, dated 2022) can be followed below.

The target of the experiment is JAK1 (Homo sapiens (Human), UniProt P23458). In words: Analysis of JAK1 activity inhibition ability (ADP-Glo Kinase Assay). The class given is biochemical. Particulars: JAK1 enzyme, ADP-Glo luminescence, ATP 250 uM, IRS-itide substrate, 30° C. 40 minutes; read-out: IC50. Put shortly:
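JAK1 enzyme, IRS-itide substrate (40 ng/mL) and 250 uM ATP, both as prepared in kinase buffer (Tris-HCl pH 7.5, MgCl2, BSA, DTT), reacted with compound 40 min at 30 °C. ADP formed was detected by ADP-Glo luminescence; IC50 is the concentration giving 50% inhibition versus control.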
On the technique in general: ADP-Glo turns the ADP formed in a reaction into a luminescent signal.

pIC50: −log10 of the molar value.

Chain of JAK1 (P23458 whole entry): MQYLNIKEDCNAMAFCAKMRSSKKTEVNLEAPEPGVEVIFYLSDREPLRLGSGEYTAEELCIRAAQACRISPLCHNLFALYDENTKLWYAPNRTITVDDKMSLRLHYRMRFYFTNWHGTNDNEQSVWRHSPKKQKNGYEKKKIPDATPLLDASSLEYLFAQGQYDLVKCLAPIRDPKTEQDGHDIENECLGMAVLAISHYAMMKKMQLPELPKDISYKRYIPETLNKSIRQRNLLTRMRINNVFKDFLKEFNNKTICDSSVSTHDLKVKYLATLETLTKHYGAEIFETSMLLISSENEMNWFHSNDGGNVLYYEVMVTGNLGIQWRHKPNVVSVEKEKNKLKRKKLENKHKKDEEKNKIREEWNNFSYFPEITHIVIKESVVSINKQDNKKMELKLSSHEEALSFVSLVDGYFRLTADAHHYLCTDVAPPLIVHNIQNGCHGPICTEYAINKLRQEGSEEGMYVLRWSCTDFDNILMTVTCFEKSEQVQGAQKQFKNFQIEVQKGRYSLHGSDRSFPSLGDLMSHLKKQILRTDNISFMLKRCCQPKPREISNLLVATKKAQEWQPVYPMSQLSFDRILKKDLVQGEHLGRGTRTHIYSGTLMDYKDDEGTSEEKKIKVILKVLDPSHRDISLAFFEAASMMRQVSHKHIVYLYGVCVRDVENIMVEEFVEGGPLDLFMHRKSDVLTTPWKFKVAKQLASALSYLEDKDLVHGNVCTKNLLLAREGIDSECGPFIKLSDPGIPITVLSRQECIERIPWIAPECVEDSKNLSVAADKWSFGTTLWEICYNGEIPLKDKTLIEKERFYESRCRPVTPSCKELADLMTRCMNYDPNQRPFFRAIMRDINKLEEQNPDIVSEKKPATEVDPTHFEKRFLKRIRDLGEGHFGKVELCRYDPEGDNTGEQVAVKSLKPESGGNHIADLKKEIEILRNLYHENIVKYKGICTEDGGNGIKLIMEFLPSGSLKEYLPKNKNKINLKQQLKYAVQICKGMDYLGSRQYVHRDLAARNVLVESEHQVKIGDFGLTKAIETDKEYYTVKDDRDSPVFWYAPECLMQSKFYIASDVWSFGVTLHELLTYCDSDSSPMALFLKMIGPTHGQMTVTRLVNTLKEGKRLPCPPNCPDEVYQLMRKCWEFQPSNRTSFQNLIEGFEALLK

For orientation: pIC50 means −log10 of the IC50, conventionally taken in molar units. Regarding `O=C(Nc1cc(-c2ccc(C(=O)N3CCS(=O)(=O)CC3)cc2)c2cc[nH]c2n1)C1CC1` [Example 520, N-(4-(4-(1,1-dioxidothiomorpholine-4-carbonyl)phenyl)-1H-pyrrolo[2,3-b]pyridin-6-yl)cyclopropanecarboxamide], the pIC50 is below 6.70. To `O=C(Nc1cc(-c2ccc(C(=O)N3CCSCC3)cc2)c2cc[nH]c2n1)C1CC1` [Example 521, N-(4-(4-(thiomorpholine-4-carbonyl)phenyl)-1H-pyrrolo[2,3-b]pyridin-6-yl)cyclopropanecarboxamide] belongs 6.70 to 7.70; to `Cc1cc(C(=O)N2CCOCC2)ccc1-c1cc(NC(=O)C2CC2)nc2[nH]ccc12` [Example 522, N-(4-(2-methyl-4-(morpholine-4-carbonyl)phenyl)-1H-pyrrolo[2,3-b]pyridin-6-yl)cyclopropanecarboxamide], 6.70 to 7.70; to `N#CCNC(=O)c1ccc(-c2cc(NC(=O)C3CC3)nc3[nH]ccc23)cc1` [Example 523, N-(cyanomethyl)-4-(6-(cyclopropanecarboxamido)-1H-pyrrolo[2,3-b]pyridin-4-yl)benzamide], above 7.70. For the molecule `O=C(NCC(F)(F)F)c1ccc(-c2cc(NC(=O)C3CC3)nc3[nH]ccc23)cc1` [Example 524, 4-(6-(cyclopropanecarboxamido)-1H-pyrrolo[2,3-b]pyridin-4-yl)-N-(2,2,2-trifluoroethyl)benzamide], the pIC50 is above 7.70. Regarding `Cc1cc(C(=O)NCC(F)(F)F)ccc1-c1cc(NC(=O)C2CC2)nc2[nH]ccc12` [Example 525, 4-(6-(cyclopropanecarboxamido)-1H-pyrrolo[2,3-b]pyridin-4-yl)-3-methyl-N-(2,2,2-trifluoroethyl)benzamide], the pIC50 is 6.70 to 7.70. For `Cc1cc(C(=O)NCC#N)ccc1-c1cc(NC(=O)C2CC2)nc2[nH]ccc12` [Example 526, N-(cyanomethyl)-4-(6-(cyclopropanecarboxamido)-1H-pyrrolo[2,3-b]pyridin-4-yl)-3-methylbenzamide], the pIC50 was 6.70 to 7.70. To `Cc1cc(C(=O)N(C)CC#N)ccc1-c1cc(NC(=O)C2CC2)nc2[nH]ccc12` [Example 527, N-(cyanomethyl)-4-(6-(cyclopropanecarboxamido)-1H-pyrrolo[2,3-b]pyridin-4-yl)-N,3-dimethylbenzamide] belongs below 6.70; to `N#CCNC(=O)c1ccc(-c2cc(NC(=O)C3CC3)nc3[nH]ccc23)cc1F` [Example 528, N-(cyanomethyl)-4-(6-(cyclopropanecarboxamido)-1H-pyrrolo[2,3-b]pyridin-4-yl)-2-fluorobenzamide], 6.70 to 7.70. Next, `N#CCNC(=O)c1c(F)cc(-c2cc(NC(=O)C3CC3)nc3[nH]ccc23)cc1F` [Example 529, N-(cyanomethyl)-4-(6-(cyclopropanecarboxamido)-1H-pyrrolo[2,3-b]pyridin-4-yl)-2,6-difluorobenzamide]: 6.70 to 7.70. On to `N#CCNC(=O)C1CC=C(c2cc(NC(=O)C3CC3)nc3[nH]ccc23)CC1` (stereo not drawn) [Example 530, N-(cyanomethyl)-4-(6-(cyclopropanecarboxamido)-1H-pyrrolo[2,3-b]pyridin-4-yl)cyclohex-3-ene-1-carboxamide], for which the pIC50 is 6.70 to 7.70. Next, `O=C(NCC(F)(F)F)C1CC=C(c2cc(NC(=O)C3CC3)nc3[nH]ccc23)CC1` (stereo not drawn) [Example 531, 4-(6-(cyclopropanecarboxamido)-1H-pyrrolo[2,3-b]pyridin-4-yl)-N-(2,2,2-trifluoroethyl)cyclohex-3-ene-1-carboxamide]: 6.70 to 7.70; `N#CCCNC(=O)C1CC=C(c2cc(NC(=O)C3CC3)nc3[nH]ccc23)CC1` (stereo not drawn) [Example 532, N-(2-cyanoethyl)-4-(6-(cyclopropanecarboxamido)-1H-pyrrolo[2,3-b]pyridin-4-yl)cyclohex-3-ene-1-carboxamide]: 6.70 to 7.70; `CNS(=O)(=O)Cc1ccc(-c2cc(NC(=O)C3CC3)nc3[nH]ccc23)cc1` [Example 533, N-(4-(4-((N-methylsulfamoyl)methyl)phenyl)-1H-pyrrolo[2,3-b]pyridin-6-yl)cyclopropanecarboxamide]: 6.70 to 7.70. To `O=C(Nc1cc(-c2ccc(CS(=O)(=O)N3CCOCC3)cc2)c2cc[nH]c2n1)C1CC1` [Example 534, N-(4-(4-((morpholinosulfonyl)methyl)phenyl)-1H-pyrrolo[2,3-b]pyridin-6-yl)cyclopropanecarboxamide] belongs below 6.70. To `O=C(Nc1cc(-c2ccc(CC(=O)N3CCS(=O)(=O)CC3)cc2)c2cc[nH]c2n1)C1CC1` [Example 535, N-(4-(4-(2-(1,1-dioxidothiomorpholino)-2-oxoethyl)phenyl)-1H-pyrrolo[2,3-b]pyridin-6-yl)cyclopropanecarboxamide] belongs 6.70 to 7.70; to `O=C(Nc1cc(-c2ccc(CC(=O)N3CCOCC3)cc2)c2cc[nH]c2n1)C1CC1` [Example 536, N-(4-(4-(2-morpholino-2-oxoethyl)phenyl)-1H-pyrrolo[2,3-b]pyridin-6-yl)cyclopropanecarboxamide], 6.70 to 7.70; to `O=C(Cc1ccc(-c2cc(NC(=O)C3CC3)nc3[nH]ccc23)cc1)NCC(F)(F)F` [Example 537, N-(4-(4-(2-oxo-2-((2,2,2-trifluoroethyl)amino)ethyl)phenyl)-1H-pyrrolo[2,3-b]pyridin-6-yl)cyclopropanecarboxamide], 6.70 to 7.70. Take `O=C(Cc1ccc(-c2cc(NC(=O)C3CC3)nc3[nH]ccc23)cc1)NC1CCS(=O)(=O)C1` (stereo not drawn) [Example 538, N-(4-(4-(2-((1,1-dioxidotetrahydrothiophen-3-yl)amino)-2-oxoethyl)phenyl)-1H-pyrrolo[2,3-b]pyridin-6-yl)cyclopropanecarboxamide]: the pIC50 is 6.70 to 7.70.

Take `CNC(=O)Cc1ccc(-c2cc(NC(=O)C3CC3)nc3[nH]ccc23)cc1` [Example 539, N-(4-(4-(2-(methylamino)-2-oxoethyl)phenyl)-1H-pyrrolo[2,3-b]pyridin-6-yl)cyclopropanecarboxamide]: the pIC50 was 6.70 to 7.70. `CN(C)C(=O)Cc1ccc(-c2cc(NC(=O)C3CC3)nc3[nH]ccc23)cc1` [Example 540, N-(4-(4-(2-(dimethylamino)-2-oxoethyl)phenyl)-1H-pyrrolo[2,3-b]pyridin-6-yl)cyclopropanecarboxamide]: the pIC50 was 6.70 to 7.70.

On to `CCNC(=O)Cc1ccc(-c2cc(NC(=O)C3CC3)nc3[nH]ccc23)cc1` [Example 541, N-(4-(4-(2-(ethylamino)-2-oxoethyl)phenyl)-1H-pyrrolo[2,3-b]pyridin-6-yl)cyclopropanecarboxamide], for which the pIC50 is 6.70 to 7.70.

`CS(=O)(=O)N1CCN(C(=O)Cc2ccc(-c3cc(NC(=O)C4CC4)nc4[nH]ccc34)cc2)CC1` [Example 542, N-(4-(4-(2-(4-(methylsulfonyl)piperazin-1-yl)-2-oxoethyl)phenyl)-1H-pyrrolo[2,3-b]pyridin-6-yl)cyclopropanecarboxamide]: the pIC50 is above 7.70. Next, `CC(=O)N1CCN(C(=O)Cc2ccc(-c3cc(NC(=O)C4CC4)nc4[nH]ccc34)cc2)CC1` [Example 543, N-(4-(4-(2-(4-acetylpiperazin-1-yl)-2-oxoethyl)phenyl)-1H-pyrrolo[2,3-b]pyridin-6-yl)cyclopropanecarboxamide]: below 6.70.
